The results in this text go back to patent publication US20240287614A1, “RECIPROCAL MICRORNA-MRNA PAIRINGS AS BIOMARKERS AND THERAPEUTIC TARGETS IN CANCER” (UNIVERSITY OF MARYLAND, EASTERN SHORE, priority 2023, published 2024).

Series [1] relates to mTOR and pmTOR. The experiment in a line: Western blot of mTOR and pmTOR in cytoplasmic and nuclear fractions of prostate cancer cell lines. Type of series: cell-based, human. The source says:
(§1) The human cell lines used in the study included: 22Rv1, LNCaP, PC-3, RC77 T/E and MDA PCa 2b (prostate cancer cell lines), MDA MB 231 and MCF-7 (breast cancer cell lines), HT-29 and SW620 (colon cancer cell lines), A549 and H1299 (lung cancer cell lines). RWPE-1, HMEC, FHC, and BEAS-2B were used as normal control cell lines for prostate, breast, colon, and lung, respectively. Note that 22Rv1 is a castration-resistant […] prostate cancer cell line, while LNCaP and PC-3 were derived from lymph node and bone metastasis of […] prostate cancer patients, respectively. RC77 T/E was derived from a primary prostate cancer patient, and MDA PCa 2b was derived from bone metastasis of an prostate cancer patient. The cell lines described were used as in vitro cell models to evaluate the functional roles of miR-99b-5p/MTOR pairing in the […] prostate cancer, African American prostate cancer and solid tumors in general. The cells were grown in specific cell culture media described as follows: 22Rv1, LNCaP, MCF-7 and H1299 were cultured in RPMI-1640 with 10% fetal bovine serum (FBS), PC-3, A549 and FHC were cultured in DMEM with 10% FBS, RC77 T/E was cultured in Keratinocyte SFM with human recombinant epidermal growth factor (EGF) and bovine pituitary extract (BPE), MDA PCa 2b were cultured in BRFF-HPC1 with 20% FBS, HT-29 was cultured in McCory's with 10% FBS, SW620 and MDA MB 231 were cultured in L-15 with 10% FBS, HMEC was cultured in mammary epithelial cell basal medium with supplements, and BEAS-2B was cultured in BEBM base medium with BEBM supplement kit. Cells were maintained at 37° C. in a 5% CO2 incubator.
(§2) The 22Rv1, LNCaP, PC-3, MDA PCa 2b, MCF7, H1299, A549, HT-29, SW620, MDA MB-231, HMEC and BEAS-2B cells were seeded at a density of 3×10^5 cells/well in 6-well plates. RC77 T/E cells were seeded at a density of 5×10^5 cells/well in 6-well plates. The cells were grown for 24 h and then transfected with nonsense/scrambled RNA (NS) and miR-99b-5p mimic (Ambion) using DharmaFECT4 transfection reagent (Dharmacon). After 24 h, fresh media were applied to replace the transfection reagent-containing media, then the cells were incubated for an additional 24 h.
The total proteins were extracted using M-PER extraction reagent with protease and phosphatase inhibitor cocktail (Thermo Fisher Scientific) according to manufacturer's protocol. Cytoplasm and nuclear proteins were extracted using Subcellular Protein Fractionation kit (Thermo Fisher Scientific) according to the manufacturer's protocol. Equal amounts of proteins were used based on the quantification using BCA assay kit (Thermo Fisher Scientific), and the samples were separated by electrophoresis using NuPAGE 4-12% or 8% Bis-Tris gels (Invitrogen). The gels were transferred to PVDF membranes (Bio-Rad) then the PVDF membranes were incubated with SuperBlock blocking buffer (Thermo Fisher Scientific). After 1 h, the PVDF membranes were incubated with primary antibodies overnight at 4° C., washed 3 times with 1×TBST, and then incubated with secondary antibody for 1 h at room temperature, then washed 5 times with 1×TBST. The results were analyzed with SuperSignal ECL substrates (Thermo Fisher Scientific) and a ChemiDoc XRS system (Bio-Rad). The primary and secondary antibodies used in the study were mTOR, pmTOR, AR, GAPDH, Lamin B1, β-actin, and anti-rabbit IgG-HRP antibodies from Cell Signaling Technology.

In series [2] the test system is mTOR and pmTOR. The series is described as follows: Immunofluorescence of mTOR and pmTOR in colon, breast and lung cancer cell lines. Type of series: cell-based, human.
Excerpt: as §1, §2
In this process, 4×10^4 cells were seeded on cover slip and allowed to adhere for 24 h in 5% CO2 incubator at 37° C. All the cells were subjected to immunofluorescence assays 48 h following transfection. Briefly, cells were washed with 1×PBS, fixed in 4% paraformaldehyde, and permeabilized with 0.1% Triton X-100. Cells were then blocked for 1 h with 2% BSA in 1×PBS. […] All labeled and/or prepared cells mounted on glass slides and were visualized by fluorescence microscopy (Olympus). […]

Series [3] has as its system mTOR and pmTOR. The experiment in a line: Western blot of mTOR and pmTOR in cytoplasmic and nuclear fractions of colon, breast and lung cancer cells. The series is classed as cell-based, human. The settings on record: breast, lung cancer cells.
Excerpt: as §1, §2
(§3) The total proteins were extracted using M-PER extraction reagent with protease and phosphatase inhibitor cocktail (Thermo Fisher Scientific) according to manufacturer's protocol. […] Equal amounts of proteins were used based on the quantification using BCA assay kit (Thermo Fisher Scientific), and the samples were separated by electrophoresis using NuPAGE 4-12% or 8% Bis-Tris gels (Invitrogen). […] The results were analyzed with SuperSignal ECL substrates (Thermo Fisher Scientific) and a ChemiDoc XRS system (Bio-Rad). […]
In general terms: Immunoblotting shows a protein as a band on a membrane.

The next series has as its system AR. The experiment in a line: Western blot of AR in total, cytoplasmic and nuclear protein fractions. The series is classed as cell-based, human.
Excerpt: as §1, §2, §3

Series [4] relates to HT-29, SW620, MDA MB 231, MCF7, A549, and H1299. The series is described as follows: Caspase 3/7 activity-based apoptosis assay, colon, breast and lung cancer cell lines. Also on record: species or system human. The method, then:
HT-29, SW620, MDA MB 231, MCF7, A549, and H1299 were seeded at a density of 3×10^4 cells/well in 96-well plates. The cells were grown overnight and then followed by transfections. After 24 h, fresh media were applied to replace the transfection reagent-containing media with […] of docetaxel or vehicle, then the cells were incubated for an additional 24 h. The Apo-ONE Caspase-3/7 Assay Kit (Promega Corporation) was used to measure apoptosis according to the protocol described by the manufacturer. Then, 100 μL of homogeneous Caspase-3/7 reagent was added to each well and the plate incubated at room temperature for 30 min to 2 h. Fluorescence was detected for measuring (at wavelengths of 499/521 nm excitation/emission) the apoptosis state (Caspase 3/7 activity) using Biotek Synergy HT Microplate Reader (BioTek).

The mark [5] stands for this setting: all European American and African American prostate cancer cell lines, 48 h transfection, vs NS.
Where [6] appears, read: metastatic prostate cancer cell line MDA PCa 2b.
The mark [7] stands for this setting: HT-29, SW620, MDA MB 231, MCF-7, A549, H1299, miR-99b-5p transfected vs NS transfected.
[8] abbreviates: six colon, breast, lung cancer cell lines, mimic vs NS.

With “miR-99b-5p mimic: miRNA mimic of miR-99b-5p (SEQ ID NO: 2, CACCCGUAGAACCGACCUUGCG), purchased from Ambion (listed as RNA, chemistry not given here; listed as Homo sapiens)”, in the series with mTOR and pmTOR [1] (setting [5]), the “mTOR in nuclear fractions (Western blot)” value is on record as “moderate to significant reduction” and the “pmTOR in nuclear fractions (Western blot)” value is on record as “moderate to significant reduction”. Moreover, the “cytoplasmic mTOR (Western blot)” value with mTOR and pmTOR [1] (all the prostate cancer cell lines, vs NS) is recorded as “slight to no reduction”. For the same substance, in the series on mTOR and pmTOR [1] (setting [6]), the “nuclear mTOR (Western blot)” value is “significant decrease” and the “nuclear pmTOR (Western blot)” value is given as “significant decrease”. In the series on mTOR and pmTOR [2] (setting [7]), the “mTOR levels (immunofluorescence)” value is listed as “generalized reduction” and the “pmTOR levels (immunofluorescence)” value is “generalized reduction”. In the series on mTOR and pmTOR [2] (setting [8]), the “cytoplasmic mTOR/nuclear mTOR ratios (immunofluorescence)” value is on record as “elevated” and the “cytoplasmic pmTOR/nuclear pmTOR ratios (immunofluorescence)” value is given as “elevated”. In addition, in the series on mTOR and pmTOR [3] (miR-99b-5p vs NS transfected), the “nuclear mTOR expression (Western blot)” value is reported as “significant decrease”; the “nuclear pmTOR expression (Western blot)” value is recorded as “significant decrease”; the “total mTOR (combined cytoplasmic and nuclear mTOR, Western blot)” value is “generalized reduction”. For the same substance, in the series on mTOR and pmTOR [3] (upon miR-99b-5p transfection), the “cytoplasmic mTOR (Western blot)” value is on record as “slight to no decrease”. The “cytoplasmic AR (Western blot)” value with AR (22Rv1 and MDA PCa 2b cells) is listed as “slight to moderate decrease”. In the series on AR (MCF-7, 22Rv1, MDA PCa 2b, mimic vs NS), the “AR expression levels, total lysates (Western blot)” value is recorded as “significantly reduced”. Moreover, in the series on AR (MCF-7, 22Rv1, and MDA PCa 2b cells), the “nuclear AR protein levels (Western blot)” value is “significantly decreased”. Besides, the “cytoplasmic AR (Western blot)” value in the series with AR (MCF-7 cells) is listed as “no change”. Further, in series [4] (HT-29, SW620, MCF-7, A549, H1299, 11 mM of docetaxel, 24 h), the “cell apoptosis (caspase 3/7 activity) in the presence of docetaxel” value is recorded as “moderate to significant cell apoptosis”. In addition, the “apoptosis (caspase 3/7 activity), single agent” value in series [4] (colon, breast, lung cancer cells, without docetaxel (vehicle)) is reported as “not sufficient to initiate significant apoptosis”.
